Values of other authors, collected in PMC11014758 (ACS infectious diseases, 2024).

What was measured:
LasR [1] = target: T1, LasR (Pseudomonas aeruginosa, UniProt P25084); conditions: same strain, analogous assay conditions; ref Moore et al. 2015 [15]
LasR [2] = target: T1, LasR; conditions: same strain, analogous assay conditions; ref Moore et al. 2015 [15]; remark: listed apart in the source

T1 sequence (P25084 whole entry): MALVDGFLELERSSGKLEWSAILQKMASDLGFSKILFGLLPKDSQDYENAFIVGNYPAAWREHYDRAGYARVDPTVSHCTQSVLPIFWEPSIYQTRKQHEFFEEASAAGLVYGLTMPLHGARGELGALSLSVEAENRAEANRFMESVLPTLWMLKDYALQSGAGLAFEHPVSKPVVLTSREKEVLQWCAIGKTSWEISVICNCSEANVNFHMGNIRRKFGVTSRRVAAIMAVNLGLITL

CCCCCCCCCC(=O)CC(=O)N[C@H]1CCOC1=O [OdDHL, N-(3-oxo)-dodecanoyl L-homoserine lactone]
Maximum Activation (LasR [1]): 100%

CCCCCCCCCNC(=O)CC(=O)c1ccccc1 [V-06–018]
IC50 (LasR [2]): 5.2 µM

chlorolactone [CL]
IC50 (LasR [2]): 21 µM | Maximum Inhibition (LasR [2]): 55%
